Measured values reported in PMC4841036, “Synthesis and antimicrobial evaluation of two peptide LyeTx I derivatives modified with the chelating agent HYNIC for radiolabeling with technetium-99m” (The Journal of Venomous Animals and Toxins Including …, 2016).
Where no end group is shown, it is not given here.

Legend:
[1] = tested on: E. coli (ATCC® 10536); test: Microdilution test, MIC in TSB; format: cell-based, Escherichia coli; settings: microdilution (CLSI) in TSB, 37 °C for 24 h, MIC = reduction of 100 % in bacterial growth, median (n = 3), each in duplicate, NI = no inhibition
Experimental: (§1) The maintenance of the antimicrobial activity after peptide LyeTx I modifications with HYNIC was evaluated by microdilution test, according to the Clinical and Laboratory Standards Institute. Bacterial strains of reference, S. aureus (ATCC® 6538) and E. coli (ATCC® 10536), were grown on tryptic soy agar at 37 °C for 18 h. Then, 0.5 McFarland scale bacterial suspensions (10^8 CFU^.mL^−1) were prepared on tryptic soy broth (TSB). The readouts were carried by determination of minimum inhibitory concentration (MIC), defined as a reduction of 100 % in bacterial growth post-incubation with the peptide LyeTx I derivatives at 37 °C for 24 h. LyeTx I obtained by chemical synthesis and without the coupled chelating agent was used as treatment control. Only TSB (no bacterial suspension and no peptide) was used as negative control. TSB plus bacterial suspension (no peptide) were used as positive control. MIC was expressed as median (n = 3). Each replicate was performed with a different bacterial colony, in duplicate.

[2] = tested on: E. coli; settings: different assay conditions and other bacterial strains; cited from earlier work
From the text: (§2) However, different assay conditions and other bacterial strains were employed, which can explain the slight differences in the MIC obtained in this study. […] On the other hand, the peptide HYNIC-LyeTx I derivative (N- ...

[3] = tested on: S. aureus; settings: different assay conditions and other bacterial strains; cited from earlier work
From the text: as §2

[4] = tested on: S. aureus (ATCC® 6538); test: Microdilution test, MIC in TSB; format: cell-based, Staphylococcus aureus; settings: microdilution (CLSI) in TSB, 37 °C for 24 h, MIC = reduction of 100 % in bacterial growth, median (n = 3), each in duplicate, NI = no inhibition
Experimental: as §1

IWLTALKFLGKNLGKHLAKQQLAKL-NH2 [LyeTx I]
Minimum inhibitory concentration (MIC) [1]: 5.52 μmol^.L^−1 | MIC [2]: 7.81 μmol^.L^−1 | MIC [3]: 3.79 μmol^.L^−1 | Minimum inhibitory concentration (MIC) [4]: 5.52 μmol^.L^−1
